Test results from ChEMBL document CHEMBL5724696, “Autophagy assay results for EUbOPEN Chemogenomics Library” (2024).

What was measured:
U2OS [1] = test: (§1) Here: values are normalized to the negative (DMSO; defined as 0% autophagy induction) and positive (250nM Torin1; mTOR inhibitor; defined as maximal inducer of autophagy = 100%) control compounds and represented as % of autophagy induction. […] The impact of autophagy induction on cells is complex and depends on the affected target. As such, the magnitude of a phenotype may not be equally mirrored in the %-value of autophagy induction and vice versa. The dynamics of the induction may indicate the mode of activation: e.g. activation via phosphorylation or a signaling cascade may occur fast, while activation via transcription factors may take considerably longer. […] Of note, treatment concentrations may be sub-optimal for specific compounds, leading to false negative annotations.; format: functional, Homo sapiens; conditions: Culturing Media DMEM, 1 % Penicillin/Streptomycin, 10% Fetal bovin serum Add-On: No, Screening Media Control DMEM, Screening Media Samples DMEM
U2OS [2] = test: as §1; format: functional, Homo sapiens; conditions: Culturing Media DMEM, 1 % Penicillin/Streptomycin, 10% Fetal bovin serum Add-On: No, Screening Media Control DMEM, Screening Media Samples DMEM; remark: listed apart in the source
[3] = Compound Concentration 0.5 uM, Timepoint 12 hours
[4] = Compound Concentration 0.5 uM, Timepoint 24 hours
[5] = Compound Concentration 0.5 uM, Timepoint 36 hours
[6] = Compound Concentration 0.5 uM, Timepoint 60 hours
[7] = Compound Concentration 2 uM, Timepoint 12 hours
[8] = Compound Concentration 2 uM, Timepoint 24 hours
[9] = Compound Concentration 2 uM, Timepoint 36 hours
[10] = Compound Concentration 2 uM, Timepoint 60 hours
[11] = Compound Concentration 10 uM, Timepoint 12 hours
[12] = Compound Concentration 10 uM, Timepoint 24 hours
[13] = Compound Concentration 10 uM, Timepoint 36 hours
[14] = Compound Concentration 10 uM, Timepoint 60 hours

| Structure (SMILES) | autophagy induction (U2OS [1]; [3]) [%] | autophagy induction (U2OS [1]; [4]) [%] | autophagy induction (U2OS [1]; [5]) [%] | autophagy induction (U2OS [1]; [6]) [%] | autophagy induction (U2OS [1]; [7]) [%] | autophagy induction (U2OS [1]; [8]) [%] | autophagy induction (U2OS [1]; [9]) [%] | autophagy induction (U2OS [1]; [10]) [%] | autophagy induction (U2OS [1]; [11]) [%] | autophagy induction (U2OS [1]; [12]) [%] | autophagy induction (U2OS [1]; [13]) [%] | autophagy induction (U2OS [1]; [14]) [%] | autophagy induction (U2OS [2]; [3]) [%] | autophagy induction (U2OS [2]; [4]) [%] | autophagy induction (U2OS [2]; [5]) [%] | autophagy induction (U2OS [2]; [6]) [%] | autophagy induction (U2OS [2]; [7]) [%] | autophagy induction (U2OS [2]; [8]) [%] | autophagy induction (U2OS [2]; [9]) [%] | autophagy induction (U2OS [2]; [10]) [%] | also measured |
| --- | --- | --- | --- | --- | --- | --- | --- | --- | --- | --- | --- | --- | --- | --- | --- | --- | --- | --- | --- | --- | --- |
| O=C(O)COc1cccc(CN(Cc2ccc(-n3cccn3)cc2)S(=O)(=O)c2cccnc2)c1 | 1.733 | -2.792 | -2.001 | 114.184 | 12.9626 | 0.7228 | 0.396 | 114.202 | 2.661 | -2.358 | 0.08453 | 114.175 | 5.874 | 2.74 | 1.495 | -1.697 | -11.5162 | -13.8805 | -8.014 | -12.1859 | autophagy induction (U2OS [2]; [11]): -5.999%; autophagy induction (U2OS [2]; [12]): -5.085%; autophagy induction (U2OS [2]; [13]): -8.443%; autophagy induction (U2OS [2]; [14]): 1.395% |
| N#Cc1ccc(NC(=O)Nc2ccccc2Br)c2nn[nH]c12 | -0.5776 | -3.216 | -2.984 | 114.391 | 0.1454 | -3.5634 | -1.494 | 114.288 | -0.261 | -3.379 | -2.529 | 114.424 | 5.86 | 3.694 | 2.244 | 1.525 | -10.6319 | -11.2857 | -14.4856 | -10.0033 | autophagy induction (U2OS [2]; [11]): -0.1618%; autophagy induction (U2OS [2]; [12]): -2.733%; autophagy induction (U2OS [2]; [13]): -3.711%; autophagy induction (U2OS [2]; [14]): -9.797% |
| Cc1c(OCc2cccc(-c3ccc(C(=O)O)cc3)c2)cc2c(c1C)C(=O)C(C1CCCC1)C2 (configuration not stated) | -1.105 | -3.325 | -3.23 | 114.413 | 3.182 | -1.283 | -1.767 | 114.283 | 2.021 | -2.128 | 0.06533 | 114.104 | 16.7916 | 7.662 | 9.473 | -0.5665 | 6.511 | 6.165 | 2.879 | -1.177 | autophagy induction (U2OS [2]; [11]): 6.9%; autophagy induction (U2OS [2]; [12]): 7.1725%; autophagy induction (U2OS [2]; [13]): 8.617%; autophagy induction (U2OS [2]; [14]): 11.2815% |
| Cc1nc(C#Cc2ccnc(Cl)c2)c(C)n1-c1ccc(OC(F)(F)F)cc1 | 6.745 | 0.06808 | -1.509 | 114.498 | 7.139 | -0.173 | -1.142 | 114.204 | 1.1344 | 2.694 | 0.08816 | 114.429 | 6.456 | 5.383 | 5.336 | 1.571 | -2.91 | 2.407 | -0.6644 | -12.3758 | autophagy induction (U2OS [2]; [11]): 2.059%; autophagy induction (U2OS [2]; [12]): 11.3882%; autophagy induction (U2OS [2]; [13]): 11.4393%; autophagy induction (U2OS [2]; [14]): 13.7118% |
| COc1cccc(-c2c(C)n(Cc3c(F)cccc3C(F)(F)F)c(=O)n(C[C@H](NCCCC(=O)[O-])c3ccccc3)c2=O)c1F.[Na+] [ELAGOLIX SODIUM] | -3.352 | -3.1643 | -0.7483 | -1111.24 | -6.63 | -5.163 | -4.643 | 114.391 | -2.89 | -3.023 | -0.9947 | 114.218 | 4.133 | 4.438 | 6.469 | -7.02 | 12.3647 | 8.125 | 1.282 | -8.542 | autophagy induction (U2OS [2]; [11]): -6.525%; autophagy induction (U2OS [2]; [12]): -4.485%; autophagy induction (U2OS [2]; [13]): -1.897%; autophagy induction (U2OS [2]; [14]): -2.895% |
| CC(C)(N)C(=O)N[C@H](COCc1ccccc1)C(=O)N1CCC2(CC1)CN(S(C)(=O)=O)c1ccccc12.CS(=O)(=O)O [IBUTAMOREN MESYLATE] | 0.1513 | -2.852 | -1.869 | 114.207 | 2.232 | 1.174 | -0.1276 | 113.997 | 21.0515 | 11.8835 | 9.457 | 114.001 | -8.194 | -5.824 | -3.752 | 0.1138 | -4.688 | -1.11 | 1.85 | -0.8182 | autophagy induction (U2OS [2]; [11]): 7.887%; autophagy induction (U2OS [2]; [12]): 2.743%; autophagy induction (U2OS [2]; [13]): 7.197%; autophagy induction (U2OS [2]; [14]): 14.096% |
| O=C(O)CC/C=C\C[C@@H]1CO[C@H](c2ccccc2Cl)O[C@@H]1c1ccccc1O | -2.932 | -1.885 | -1.616 | 114.317 | -0.3574 | -1.612 | -1.86 | 114.217 | -0.147 | -2.085 | -2.519 | 114.255 | -1.049 | 2.549 | 1.3825 | -3.206 | -3.826 | -5.258 | 1.68 | -8.886 | autophagy induction (U2OS [2]; [11]): 0.2701%; autophagy induction (U2OS [2]; [12]): -2.3073%; autophagy induction (U2OS [2]; [13]): -0.4123%; autophagy induction (U2OS [2]; [14]): -4.081% |
| CCCCN(CC)c1nc(C)nc2c1c(C)cn2-c1c(C)cc(C)cc1C.Cl | 2.677 | -1.508 | -1.584 | 114.355 | 3.96 | -1.673 | -1.59 | 114.358 | -1.788 | -2.669 | -2.565 | 114.561 | 18.6925 | 15.758 | 10.5217 | 0.4484 | 10.9121 | 4.341 | 5.091 | -0.08598 | autophagy induction (U2OS [2]; [11]): 2.112%; autophagy induction (U2OS [2]; [12]): -2.1052%; autophagy induction (U2OS [2]; [13]): 3.327%; autophagy induction (U2OS [2]; [14]): 1.7732% |
